ChEMBL document CHEMBL4831516, “Development of Membrane-Active Honokiol/Magnolol Amphiphiles as Potent Antibacterial Agents against Methicillin-Resistant Staphylococcus aureus (MRSA)” (J Med Chem, 2021)
Converted amounts (≈) assume the structure as drawn.

Assays:
[1] = Selectivity index, HC50 for hemolytic activity in sheep RBC to MIC for antibacterial activity against Staphylococcus aureus ATCC29213; type: toxicity; settings: sheep red blood cells (erythrocytes), read-out: Selectivity Index
Salmonella enterica [2] = assay: Antibacterial activity against Salmonella enterica 349812 assessed as inhibition of visible growth incubated for 16 to 18 hrs by CLSI method; type: functional; settings: time 16-18 hrs, read-out: MIC100
Micrococcus luteus = assay: Antibacterial activity against Micrococcus luteus assessed as inhibition of visible growth incubated for 16 to 18 hrs by CLSI method; type: functional; settings: time 16-18 hrs, read-out: MIC100
Staphylococcus aureus [3] = assay: Antibacterial activity against methicillin-resistant Staphylococcus aureus clinical isolate M-18 assessed as inhibition of visible growth incubated for 16 to 18 hrs by CLSI method; type: functional; settings: time 16-18 hrs, read-out: MIC100
Staphylococcus aureus [4] = assay: Antibacterial activity against methicillin-resistant Staphylococcus aureus clinical isolate M-20 assessed as inhibition of visible growth incubated for 16 to 18 hrs by CLSI method; type: functional; settings: time 16-18 hrs, read-out: MIC100
Staphylococcus aureus [5] = assay: Antibacterial activity against Staphylococcus aureus ATCC29213 assessed as inhibition of visible growth incubated for 16 to 18 hrs by CLSI method; type: functional; settings: time 16-18 hrs, read-out: MIC100
Enterococcus faecalis = assay: Antibacterial activity against Enterococcus faecalis ATCC29212 assessed as inhibition of visible growth incubated for 16 to 18 hrs by CLSI method; type: functional; settings: time 16-18 hrs, read-out: MIC100
Staphylococcus aureus [6] = assay: Antibacterial activity against methicillin-resistant Staphylococcus aureus clinical isolate M-17 assessed as inhibition of visible growth incubated for 16 to 18 hrs by CLSI method; type: functional; settings: time 16-18 hrs, read-out: MIC100
[7] = Hemolytic activity in sheep RBC assessed as hemolysis incubated for 1 hr; type: ADME, cell-based, Ovis aries, Erythrocyte; settings: sheep red blood cells (erythrocytes)
Staphylococcus aureus [8] = assay: Antibacterial activity against methicillin-resistant Staphylococcus aureus clinical isolate M-19 assessed as inhibition of visible growth incubated for 16 to 18 hrs by CLSI method; type: functional; settings: time 16-18 hrs, read-out: MIC100
Escherichia coli = assay: Antibacterial activity against Escherichia coli ATCC25922 assessed as inhibition of visible growth incubated for 16 to 18 hrs by CLSI method; type: functional; settings: time 16-18 hrs, read-out: MIC100
[9] = tested on: Stenotrophomonas maltophilia; assay: Antibacterial activity against Stenotrophomonas maltophilia assessed as inhibition of visible growth incubated for 16 to 18 hrs by CLSI method; type: functional; settings: time 16-18 hrs, read-out: MIC100
Staphylococcus aureus [10] = assay: Antibacterial activity against methicillin-resistant Staphylococcus aureus clinical isolate M-12 assessed as inhibition of visible growth incubated for 16 to 18 hrs by CLSI method; type: functional; settings: time 16-18 hrs, read-out: MIC100
Staphylococcus aureus [11] = assay: Antibacterial activity against methicillin-resistant Staphylococcus aureus clinical isolate M-11 assessed as inhibition of visible growth incubated for 16 to 18 hrs by CLSI method; type: functional; settings: time 16-18 hrs, read-out: MIC100
Salmonella enterica [12] = assay: Antibacterial activity against Salmonella enterica 8389 assessed as inhibition of visible growth incubated for 16 to 18 hrs by CLSI method; type: functional; settings: time 16-18 hrs, read-out: MIC100
Bacillus subtilis = assay: Antibacterial activity against Bacillus subtilis assessed as inhibition of visible growth incubated for 16 to 18 hrs by CLSI method; type: functional; settings: time 16-18 hrs, read-out: MIC100
Staphylococcus aureus [13] = assay: Antibacterial activity against methicillin-resistant Staphylococcus aureus clinical isolate M-16 assessed as inhibition of visible growth incubated for 16 to 18 hrs by CLSI method; type: functional; settings: time 16-18 hrs, read-out: MIC100
Staphylococcus aureus [14] = assay: Antibacterial activity against methicillin-resistant Staphylococcus aureus clinical isolate M-13 assessed as inhibition of visible growth incubated for 16 to 18 hrs by CLSI method; type: functional; settings: time 16-18 hrs, read-out: MIC100
Staphylococcus aureus [15] = assay: Antibacterial activity against methicillin-resistant Staphylococcus aureus clinical isolate M-14 assessed as inhibition of visible growth incubated for 16 to 18 hrs by CLSI method; type: functional; settings: time 16-18 hrs, read-out: MIC100
Staphylococcus aureus [16] = assay: Antibacterial activity against methicillin-resistant Staphylococcus aureus clinical isolate M-15 assessed as inhibition of visible growth incubated for 16 to 18 hrs by CLSI method; type: functional; settings: time 16-18 hrs, read-out: MIC100

SMILES | selectivity ratio [1] | MIC (Salmonella enterica [2]) | MIC (Micrococcus luteus) | MIC (Staphylococcus aureus [3]) | MIC (Staphylococcus aureus [4]) | MIC (Staphylococcus aureus [5]) | MIC (Enterococcus faecalis) | MIC (Staphylococcus aureus [6]) | HC50 at 1 h [7] | MIC (Staphylococcus aureus [8]) | MIC (Escherichia coli) | MIC [9] | MIC (Staphylococcus aureus [10]) | MIC (Staphylococcus aureus [11]) | MIC (Salmonella enterica [12]) | MIC (Bacillus subtilis) | MIC (Staphylococcus aureus [13]) | MIC (Staphylococcus aureus [14]) | MIC (Staphylococcus aureus [15]) | MIC (Staphylococcus aureus [16])
C=CCc1ccc(OCC[N+](C)(C)CC(=O)NCC)c(-c2ccc(OCC[N+](C)(C)CC(=O)NCC)c(CC=C)c2)c1.[Br-].[Br-] | 79.9 | 32 µg/mL | 4 µg/mL | 4 µg/mL | 4 µg/mL | 8 µg/mL | 8 µg/mL | 4 µg/mL | 639 µg/mL | 4 µg/mL | 32 µg/mL | 32 µg/mL | 8 µg/mL | 8 µg/mL | 64 µg/mL | 4 µg/mL | 4 µg/mL | 8 µg/mL | 4 µg/mL | 4 µg/mL
C=CCc1ccc(OCCCC[N+](C)(C)CC(=O)NCC)c(-c2ccc(OCCCC[N+](C)(C)CC(=O)NCC)c(CC=C)c2)c1.[Br-].[Br-] | 442 | 8 µg/mL | 8 µg/mL | 8 µg/mL | 8 µg/mL | 2 µg/mL | 2 µg/mL | 8 µg/mL | 883 µg/mL | 8 µg/mL | 4 µg/mL | 8 µg/mL | 8 µg/mL | 16 µg/mL | 32 µg/mL | 4 µg/mL | 16 µg/mL | 8 µg/mL | 8 µg/mL | 8 µg/mL
C[C@H]1COc2c(N3CCN(C)CC3)c(F)cc3c(=O)c(C(=O)O)cn1c23.C[C@H]1COc2c(N3CCN(C)CC3)c(F)cc3c(=O)c(C(=O)O)cn1c23.O [LEVOFLOXACIN] |  | 0.25 µg/mL | 0.25 µg/mL | 0.5 µg/mL | 1 µg/mL | 0.5 µg/mL | 0.25 µg/mL | 5 µg/mL |  | 1 µg/mL |  | 0.5 µg/mL | 1 µg/mL | 1 µg/mL | 0.25 µg/mL | 0.5 µg/mL | 1 µg/mL | 5 µg/mL | 1 µg/mL | 1 µg/mL
C=CCc1ccc(O)c(-c2cc(CC=C)ccc2O)c1 [MAGNOLOL] |  | > 128 µg/mL | 16 µg/mL (≈ 60.1 µM) |  |  | 32 µg/mL (≈ 120 µM) | 64 µg/mL (≈ 240 µM) |  | 463 µg/mL |  | > 128 µg/mL | > 128 µg/mL |  |  | > 128 µg/mL | 16 µg/mL (≈ 60.1 µM) |  |  |  | 
C=CCc1ccc(O)c(-c2ccc(O)c(CC=C)c2)c1 [HONOKIOL] |  | > 128 µg/mL | 32 µg/mL (≈ 120 µM) |  |  | 64 µg/mL (≈ 240 µM) | 64 µg/mL (≈ 240 µM) |  | 534 µg/mL |  | > 128 µg/mL | > 128 µg/mL |  |  | > 128 µg/mL | 32 µg/mL (≈ 120 µM) |  |  |  | 
CN[C@H](CC(C)C)C(=O)N[C@H]1C(=O)N[C@@H](CC(N)=O)C(=O)N[C@H]2C(=O)N[C@H]3C(=O)N[C@H](C(=O)N[C@H](C(=O)O)c4cc(O)cc(O)c4-c4cc3ccc4O)[C@H](O)c3ccc(c(Cl)c3)Oc3cc2cc(c3O[C@@H]2O[C@H](CO)[C@@H](O)[C@H](O)[C@H]2O[C@H]2C[C@](C)(N)[C@H](O)[C@H](C)O2)Oc2ccc(cc2Cl)[C@H]1O [VANCOMYCIN] |  |  | 0.5 µg/mL (≈ 0.345 µM) |  |  |  | 2 µg/mL (≈ 1.38 µM) |  |  |  |  |  |  |  |  | 0.25 µg/mL (≈ 0.173 µM) |  |  |  | 
CN(C)c1cc(NC(=O)CNC(C)(C)C)c(O)c2c1C[C@H]1C[C@H]3[C@H](N(C)C)C(O)=C(C(N)=O)C(=O)[C@@]3(O)C(O)=C1C2=O [TIGECYCLINE] |  |  |  | 0.25 µg/mL (≈ 0.427 µM) | 0.5 µg/mL (≈ 0.854 µM) |  |  | 0.5 µg/mL (≈ 0.854 µM) |  | 0.5 µg/mL (≈ 0.854 µM) |  |  | 1 µg/mL (≈ 1.71 µM) | 0.5 µg/mL (≈ 0.854 µM) |  |  | 0.25 µg/mL (≈ 0.427 µM) | 1 µg/mL (≈ 1.71 µM) | 1 µg/mL (≈ 1.71 µM) | 0.5 µg/mL (≈ 0.854 µM)
